Measured values published in patent publication US11078202B2, “β-lactamase inhibitor and use thereof” (priority 2018, dated 2021).
Counter-ions that a name gives are not always drawn.

How the values were obtained:
Type in all cases: cell-based
[1] = test system: Klebsiella pneumoniae XNWB 0001; experiment: MIC assay of test compounds combined with ceftazidime (8 μg/mL); settings: ceftazidime 8 μg/mL fixed
Protocol: (§1) The bacterial strains used for the minimum inhibitory concentration (MIC) test were frozen in a −80° C. ULT freezer and thawed 2 days before use. A small amount of frozen bacterial strains were scraped using a sterile inoculating loop, streaked onto a TSA solid culture dish for inoculation, and then cultured for 20-24 h at 35±2° C. in a normal atmospheric environment. 5-10 colonies with similar morphology were picked from the culture dish using a sterile inoculating loop and then re-streaked onto a suitable solid culture dish. Then the dish was placed into a normal incubator for culture for 20-24 h at 35±2° C. 5-10 single bacterial colonies were picked from the solid culture dish, resuspended in 500 μL of 0.9% NaCl, and adjusted to an OD600 of 0.1-0.15 with a spectrophotometer. The bacteria were then diluted 300-fold with 1.1×CAMHB. […] Dilution of test compounds: […] 2 μL of each compound in the dilution master plate of the test compounds was transferred to the corresponding well of the assay plates. In the mean time, 2 μL of 100% DMSO was transferred to the compound-free wells (GC and SC wells). (1) 8 μL of imipenem in the additive plate of imipenem was transferred to the corresponding wells of the assay plates; (2) 8 μL of ceftazidime in the additive plate of ceftazidime was transferred to the corresponding wells of the assay plates; (3) 8 μL of ampicillin in the additive plate of ampicillin was transferred to the corresponding wells of the assay plates. 90 μL of corresponding bacterial inocula were added to wells (except for SC wells) of the assay plates. After addition, the 6 assay plates were covered by sterile covers. The mixtures in the assay plates were centrifuged by a centrifuge at 1000 rpm for 30 s, and mixed uniformly by oscillating with a microplate oscillator at 800 rpm for 1 min, and then cultured in a common incubator for 16-20 h at 35±2° C. The minimum inhibitory concentration of each compound was recorded by reference to guidelines from the Clinical and Laboratory Standards Institute. […] The effect of the test compounds in combination with imipenem, ceftazidime, and ampicillin was also tested. […] The bacterial inocula in the assay plates were resuscitated from TSA and diluted in CAMHB, while growth controls (GC wells) and sterile controls (SC wells) were set up in the assay plates. The minimum inhibitory concentration of each compound combination against different bacteria was observed and recorded after the assay plates were incubated in a common incubator at 35±2° C. for 16-20 h, and the results are shown in Tables 1-3.

[2] = test system: Klebsiella pneumoniae XNWB 0004; experiment: as above; settings: ceftazidime 8 μg/mL fixed
Protocol: as §1

[3] = test system: Klebsiella pneumoniae XNWB 0006; experiment: as above; settings: ceftazidime 8 μg/mL fixed
Protocol: as §1

[4] = test system: Klebsiella pneumoniae XNWB 0003; experiment: as above; settings: ceftazidime 8 μg/mL fixed
Protocol: as §1

[5] = test system: Klebsiella pneumoniae XNWB 0005; experiment: as above; settings: ceftazidime 8 μg/mL fixed
Protocol: as §1

[6] = test system: Pseudomonas aeruginosa XNWB 0008; experiment: as above; settings: ceftazidime 8 μg/mL fixed
Protocol: as §1

[7] = test system: Klebsiella pneumoniae XNWB 0002; experiment: as above; settings: ceftazidime 8 μg/mL fixed
Protocol: as §1

[8] = test system: Acinetobacter baumannii XNWB 0007; experiment: as above; settings: ceftazidime 8 μg/mL fixed
Protocol: as §1

[9] = test system: Klebsiella pneumoniae XNWB 0001; experiment: MIC assay of test compounds combined with imipenem (4 μg/mL); settings: imipenem 4 μg/mL fixed
Protocol: as §1

[10] = test system: Klebsiella pneumoniae XNWB 0004; experiment: as above; settings: imipenem 4 μg/mL fixed
Protocol: as §1

[11] = test system: Klebsiella pneumoniae XNWB 0006; experiment: as above; settings: imipenem 4 μg/mL fixed
Protocol: as §1

[12] = test system: Klebsiella pneumoniae XNWB 0003; experiment: as above; settings: imipenem 4 μg/mL fixed
Protocol: as §1

[13] = test system: Klebsiella pneumoniae XNWB 0005; experiment: as above; settings: imipenem 4 μg/mL fixed
Protocol: as §1

[14] = test system: Pseudomonas aeruginosa XNWB 0008; experiment: as above; settings: imipenem 4 μg/mL fixed
Protocol: as §1

[15] = test system: Klebsiella pneumoniae XNWB 0002; experiment: as above; settings: imipenem 4 μg/mL fixed
Protocol: as §1

[16] = test system: Acinetobacter baumannii XNWB 0007; experiment: as above; settings: imipenem 4 μg/mL fixed
Protocol: as §1

Row | Structure (SMILES) | The minimum concentration of test compounds combined with ceftazidime (8 μg/mL) for bacteriostasis [1] | The minimum concentration of test compounds combined with ceftazidime (8 μg/mL) for bacteriostasis [2] | The minimum concentration of test compounds combined with ceftazidime (8 μg/mL) for bacteriostasis [3] | The minimum concentration of test compounds combined with ceftazidime (8 μg/mL) for bacteriostasis [4] | The minimum concentration of test compounds combined with ceftazidime (8 μg/mL) for bacteriostasis [5] | The minimum concentration of test compounds combined with ceftazidime (8 μg/mL) for bacteriostasis [6] | The minimum concentration of test compounds combined with ceftazidime (8 μg/mL) for bacteriostasis [7] | The minimum concentration of test compounds combined with ceftazidime (8 μg/mL) for bacteriostasis [8] | The minimum concentration of test compounds combined with imipenem (4 μg/mL) for bacteriostasis [9] | The minimum concentration of test compounds combined with imipenem (4 μg/mL) for bacteriostasis [10] | The minimum concentration of test compounds combined with imipenem (4 μg/mL) for bacteriostasis [11] | The minimum concentration of test compounds combined with imipenem (4 μg/mL) for bacteriostasis [12] | The minimum concentration of test compounds combined with imipenem (4 μg/mL) for bacteriostasis [13] | The minimum concentration of test compounds combined with imipenem (4 μg/mL) for bacteriostasis [14] | The minimum concentration of test compounds combined with imipenem (4 μg/mL) for bacteriostasis [15] | The minimum concentration of test compounds combined with imipenem (4 μg/mL) for bacteriostasis [16]
1 | CNCCc1nnc([C@@H]2CC3(CC3)[C@@H]3CN2C(=O)N3OS(=O)(=O)O)o1 [Example 24, (1R,4S)-4-(5-(2-(methylamino)ethyl)-1,3,4-oxadiazol-2-yl)-6-oxo-5,7-diazaspiro[bicyclo[3.2.1]octane-2,1′-cyclopropan]-7-yl sulfate] | A (A: <8 μg/mL) | A (A: <8 μg/mL) | A (A: <8 μg/mL) | A (A: <8 μg/mL) | A (A: <8 μg/mL) | C (C: 16-128 μg/mL) | A (A: <8 μg/mL) | C (C: 16-128 μg/mL) | A (A: <8 μg/mL) | A (A: <8 μg/mL) | A (A: <8 μg/mL) | A (A: <8 μg/mL) | A (A: <8 μg/mL) | B (B: 8-16 μg/mL) | A (A: <8 μg/mL) | A (A: <8 μg/mL)
2 | O=C1N2C[C@H](N1OS(=O)(=O)O)C1(CC1)C[C@H]2c1nnco1 [Example 1, (1R,4S)-4-(1,3,4-oxadiazol-2-yl)-6-oxo-5,7-diazaspiro[bicyclo[3.2.1]octane-2,1′-cyclopropan]-7-yl sulfate] | A (A: <8 μg/mL) | B (B: 8-16 μg/mL) | A (A: <8 μg/mL) | A (A: <8 μg/mL) | A (A: <8 μg/mL) | C (C: 16-128 μg/mL) | A (A: <8 μg/mL) | C (C: 16-128 μg/mL) | A (A: <8 μg/mL) | A (A: <8 μg/mL) | A (A: <8 μg/mL) | A (A: <8 μg/mL) | A (A: <8 μg/mL) | C (C: 16-128 μg/mL) | A (A: <8 μg/mL) | C (C: 16-128 μg/mL)
